Where two headings read alike, the source gives them in different places. Starred links: 1 amine or outer side, 2 acyl side, 3 side chain; linkers in the order of their positions; H or OH if unused. Non-standard residues stand in square brackets, D forms with d. Residues, ends and D or L forms follow the SMILES beside them. *: point of attachment. Benzoyl(4-(pyrrol-1-yl)) = O=C(c1ccc(-n2cccc2)cc1)*; Cysteamide = C(CS[*:3])N[*:1]; Dap = NC[C@H](N)C(=O)O
Assays:
[1] = target: T1, PKCα (Homo sapiens, UniProt P17252); experiment: Protein Kinase Cα radioactive assay, peptide substrate Ac-Ser-Phe-Arg-Arg-Arg-NH2 (Example 1); assay type: biochemical; set-up: purchased Pan Vera; settings: peptide substrate; read-out: PKCα inhibitory potency IC50
Experimental: Protein Kinase C Assay (general). The peptides […] (for PKC α, β and γ) and acetyl-[…] (for PKC ε and ζ) were used as substrates. […] Total reaction volume was 50 μL. […] Following an additional 5 min incubation at ambient temperature, 75 μL from each reaction well was transferred into each well of a Unifilter (P81 cellulose phosphate paper) assay plate and washed four times with 0.1% phosphoric acid in water. […] IC50 values were calculated using GraFit (Erithacus Software Limited) and Ki values were calculated using Enzyme Kinetics, SigmaPlot (SPSS Inc.) […] An analogous protocol was employed for peptide 4 versus variable [[…]]. […] An analogous protocol was employed for peptide 4 versus variable [ATP]. Protein Kinase Cα Assay (Ki determination for peptide 6 versus variable […] substrate). […] The reaction was initiated as described above. […] Following an additional 5 min incubation at ambient temperature, 75 μL from each reaction well was transferred into each well of a Unifilter (P81 cellulose phosphate paper) assay plate and washed four times with 0.1% phosphoric acid in water. […] IC50 values were calculated using GraFit (Erithacus Software Limited) and Ki values were calculated using Enzyme Kinetics, SigmaPlot (SPSS Inc.)

[2] = target: PKCγ (Homo sapiens, UniProt P05129); set-up: purchased Panvera; settings: cited from earlier work
[3] = target: T2, PKCζ (Homo sapiens, UniProt Q05513); set-up: purchased Panvera; settings: cited from earlier work
T2 sequence (Q05513 1-592): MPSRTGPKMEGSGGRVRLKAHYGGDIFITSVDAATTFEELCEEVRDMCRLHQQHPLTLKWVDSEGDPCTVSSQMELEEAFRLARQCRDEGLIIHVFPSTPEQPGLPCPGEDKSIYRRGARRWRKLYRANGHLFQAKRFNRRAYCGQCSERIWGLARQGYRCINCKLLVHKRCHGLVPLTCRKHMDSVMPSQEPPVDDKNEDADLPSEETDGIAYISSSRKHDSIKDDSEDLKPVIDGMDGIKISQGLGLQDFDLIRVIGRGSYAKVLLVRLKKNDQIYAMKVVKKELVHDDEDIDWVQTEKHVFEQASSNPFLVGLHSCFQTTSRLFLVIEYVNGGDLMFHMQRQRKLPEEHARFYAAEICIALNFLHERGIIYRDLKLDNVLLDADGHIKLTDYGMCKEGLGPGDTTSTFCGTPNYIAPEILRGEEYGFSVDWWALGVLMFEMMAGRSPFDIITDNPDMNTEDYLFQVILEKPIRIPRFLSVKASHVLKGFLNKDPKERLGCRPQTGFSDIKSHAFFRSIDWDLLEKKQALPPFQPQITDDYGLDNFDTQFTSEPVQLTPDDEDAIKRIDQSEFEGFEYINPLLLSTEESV

[4] = target: PKCδ (Homo sapiens, UniProt Q05655); set-up: purchased Panvera; settings: literature values; relative to most potently inhibited isoform (=1); cited from earlier work
Sequence of PKCδ (Q05655 whole entry, canonical isoform): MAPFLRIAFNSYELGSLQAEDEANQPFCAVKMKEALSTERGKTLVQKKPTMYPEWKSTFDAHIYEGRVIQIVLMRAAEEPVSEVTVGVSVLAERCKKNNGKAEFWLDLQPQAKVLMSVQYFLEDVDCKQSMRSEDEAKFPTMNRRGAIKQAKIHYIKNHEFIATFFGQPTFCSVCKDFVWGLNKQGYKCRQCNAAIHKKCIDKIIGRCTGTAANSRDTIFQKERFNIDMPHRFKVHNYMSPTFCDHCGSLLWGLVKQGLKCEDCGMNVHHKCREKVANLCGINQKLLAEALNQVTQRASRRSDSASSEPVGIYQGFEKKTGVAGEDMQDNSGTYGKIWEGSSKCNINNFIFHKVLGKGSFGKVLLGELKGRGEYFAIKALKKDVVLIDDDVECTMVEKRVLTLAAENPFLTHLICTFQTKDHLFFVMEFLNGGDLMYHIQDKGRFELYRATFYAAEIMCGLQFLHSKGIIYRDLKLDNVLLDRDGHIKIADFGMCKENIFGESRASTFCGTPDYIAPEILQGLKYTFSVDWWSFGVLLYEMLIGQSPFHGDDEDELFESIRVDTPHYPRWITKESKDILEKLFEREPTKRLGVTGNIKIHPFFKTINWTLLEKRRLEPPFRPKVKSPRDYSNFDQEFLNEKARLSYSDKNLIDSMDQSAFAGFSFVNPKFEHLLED

[5] = target: T1, PKCα; settings: cited from earlier work
[6] = target: PKC β1 (Homo sapiens, UniProt P05771); settings: cited from earlier work
Sequence of PKC β1 (P05771 whole entry): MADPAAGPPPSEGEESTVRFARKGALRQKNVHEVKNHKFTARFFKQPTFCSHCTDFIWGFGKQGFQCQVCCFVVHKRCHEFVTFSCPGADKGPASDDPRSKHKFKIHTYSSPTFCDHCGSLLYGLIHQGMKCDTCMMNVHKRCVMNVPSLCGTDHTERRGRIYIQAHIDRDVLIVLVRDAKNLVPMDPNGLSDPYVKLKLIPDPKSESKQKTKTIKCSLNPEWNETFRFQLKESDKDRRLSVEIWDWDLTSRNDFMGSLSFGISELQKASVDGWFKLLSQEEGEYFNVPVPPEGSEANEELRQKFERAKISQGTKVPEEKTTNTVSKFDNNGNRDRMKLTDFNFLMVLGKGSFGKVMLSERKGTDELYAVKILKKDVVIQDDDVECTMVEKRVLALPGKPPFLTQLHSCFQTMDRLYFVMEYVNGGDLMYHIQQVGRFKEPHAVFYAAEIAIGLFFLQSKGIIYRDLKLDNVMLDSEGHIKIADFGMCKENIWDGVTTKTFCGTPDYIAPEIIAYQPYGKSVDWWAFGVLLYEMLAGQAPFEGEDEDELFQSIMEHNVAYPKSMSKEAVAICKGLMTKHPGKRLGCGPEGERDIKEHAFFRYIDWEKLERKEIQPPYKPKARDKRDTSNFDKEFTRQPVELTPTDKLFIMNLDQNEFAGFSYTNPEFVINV

[7] = target: PKCη (Homo sapiens, UniProt P24723); set-up: purchased Panvera; settings: cited from earlier work
Sequence of PKCη (P24723 whole entry): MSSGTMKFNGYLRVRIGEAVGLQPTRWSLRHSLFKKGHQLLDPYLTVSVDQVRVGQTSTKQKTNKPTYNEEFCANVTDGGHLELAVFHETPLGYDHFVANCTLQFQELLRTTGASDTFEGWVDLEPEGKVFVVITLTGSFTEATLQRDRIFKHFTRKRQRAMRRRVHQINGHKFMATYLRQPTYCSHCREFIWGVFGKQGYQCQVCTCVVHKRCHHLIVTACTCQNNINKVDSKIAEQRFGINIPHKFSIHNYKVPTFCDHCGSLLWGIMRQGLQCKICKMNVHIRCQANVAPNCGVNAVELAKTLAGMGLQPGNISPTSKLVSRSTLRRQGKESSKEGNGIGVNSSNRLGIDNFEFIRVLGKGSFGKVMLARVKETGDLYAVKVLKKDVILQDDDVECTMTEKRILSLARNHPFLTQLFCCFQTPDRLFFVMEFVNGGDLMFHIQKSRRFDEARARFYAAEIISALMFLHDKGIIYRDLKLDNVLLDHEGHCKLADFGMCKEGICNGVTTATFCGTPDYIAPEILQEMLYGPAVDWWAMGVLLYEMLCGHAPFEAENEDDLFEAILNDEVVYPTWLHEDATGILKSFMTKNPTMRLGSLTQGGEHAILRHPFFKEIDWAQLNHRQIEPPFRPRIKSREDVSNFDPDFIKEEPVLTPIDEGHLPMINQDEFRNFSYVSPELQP

[8] = target: T3, PKCε (Homo sapiens, UniProt Q02156); set-up: purchased Panvera; settings: cited from earlier work
T3 sequence (Q02156 1-737): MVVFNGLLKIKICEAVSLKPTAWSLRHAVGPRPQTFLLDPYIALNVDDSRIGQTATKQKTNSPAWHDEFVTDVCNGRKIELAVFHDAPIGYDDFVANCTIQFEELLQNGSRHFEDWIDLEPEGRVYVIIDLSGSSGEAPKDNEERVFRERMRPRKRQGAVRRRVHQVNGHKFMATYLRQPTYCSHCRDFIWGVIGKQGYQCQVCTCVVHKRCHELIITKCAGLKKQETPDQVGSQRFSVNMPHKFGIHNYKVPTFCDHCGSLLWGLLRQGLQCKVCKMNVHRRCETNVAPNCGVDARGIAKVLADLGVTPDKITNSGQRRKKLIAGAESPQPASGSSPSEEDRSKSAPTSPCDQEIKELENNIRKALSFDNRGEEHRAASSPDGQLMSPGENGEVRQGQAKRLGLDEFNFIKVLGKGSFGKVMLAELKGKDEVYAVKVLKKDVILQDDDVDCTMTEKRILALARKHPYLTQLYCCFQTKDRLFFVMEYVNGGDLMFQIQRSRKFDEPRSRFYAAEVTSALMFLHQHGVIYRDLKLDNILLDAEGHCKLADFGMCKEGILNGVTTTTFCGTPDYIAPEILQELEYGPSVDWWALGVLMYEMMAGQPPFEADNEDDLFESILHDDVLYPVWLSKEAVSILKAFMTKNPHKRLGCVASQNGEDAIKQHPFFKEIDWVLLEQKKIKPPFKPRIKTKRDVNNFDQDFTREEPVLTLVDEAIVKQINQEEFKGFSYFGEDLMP

Row | Structure (SMILES) | IC50 [1] [µM] | Fold selectivity (IC50), PKC γ [2] [fold] | Fold selectivity (IC50), PKC ζ [3] [fold] | Fold selectivity (IC50), PKC δ [4] [fold] | Fold selectivity (IC50), PKC α [5] [fold] | Fold selectivity (IC50), PKC β1 [6] [fold] | Fold selectivity (IC50), PKC β1 ([6]; listed as rottlerin) [fold] | Fold selectivity (IC50), PKC η [7] [fold] | Fold selectivity (IC50), PKC ε [8] [fold]
1 | CC(=O)N[C@@H](C)C(=O)N[C@@H](CCCNC(=N)N)C(=O)N[C@@H](CCCNC(=N)N)C(=O)NCC(=O)N[C@@H](CNC(=O)c1ccc(-n2cccc2)cc1)C(=O)N[C@@H](CC(C)C)C(=O)N[C@@H](CCCNC(=N)N)C(=O)N[C@@H](CCC(N)=O)C(=O)N[C@@H](C)C(=O)NCCS [Compound 2] (Ac-ARRG[Dap](Benzoyl(4-(pyrrol-1-yl)))LRQA-Cysteamide) | 5.7 ± 0.4 |  |  |  |  |  |  |  | 
2 | CC(=O)c1c(O)c(C)c(O)c(Cc2c(O)c3c(c(C(=O)/C=C/c4ccccc4)c2O)OC(C)(C)C=C3)c1O [Rottlerin, rottlerin] |  | 13 | 33 | 1 | 10 | 14 | 10 | 27 | 33
